Assay results as given in patent publication US6159934A, “Use of GHRH-RP to stimulate stem cell factor production” (Indiana University Foundation, priority 1996, dated 2000).

Experiments:
[1] = tested on: stem cell factor (SCF) gene expression in Sertoli cells; experiment: Northern blot analysis of SCF gene expression in cultured Sertoli cells; format: cell-based; conditions: 16 hours, rat Sertoli cells, actin as control
Method: As indicated above, it has been discovered that GHRH-RP has a unique testicular action. GHRH-RP specifically activated SVF in Sertoli cells as described in Example 3 below. […] Northern gel analysis of 10 μg of total Sertoli cell RNA was performed and the blot probed for SCF, transferrin, androgen binding protein (ABP), α-inhibin and γ-actin as control. B. Bloch, A. Baird, N. Ling, R. Guillemin, Endocrinology 118, 156 (1986). Stimulation of SCF expression is 12 fold over control at 10 nM and 16 fold at 100 nM concentrations of GHRH-RP. GHRH (10 nM) stimulated stem cell factor gene expression 3 fold over control. […] Other Sertoli cell specific transcripts including transferrin, ABP and α-inhibin were note regulated by GHRH-RP (FIG. 6). Although a functional GHRH receptor has been identified in Sertoli cells (R. S. Johnson, B. M. Spiegelman, V. Papaioannou, Cell 71, 577 (1992); K. M. Zsebo et al., Cell 63, 213 (1990); E. Huang et al., Cell 63, 225), the GHRH-RP stimulation of stem cell factor expression may not be mediated through this receptor. […] Briefly, shown in FIG. 6 are the results of experiments in which rat Sertoli cells, isolated and cultured for 4 days were incubated with GHRH-RP (100 nM), GHRH (100 nM), FSH (0.0275 U/ml) or control media for 30 minutes at 37° C. The cells were then assayed for cAMP production by 125 I cAMP Radioimmunoassay. C. H. Srivastava, J. D. Fleck, A. M. Meyers, S. A. Berry, O. H. Pescovitz, "Distribution of Growth Hormone Releasing Hormone-Like (HRH-LI) mRNA and Immunoreactivity in Rat Tissues" (Abstract), The Endocrine Society, 73rd Annual Endocrine Society, Washington, D.C. (1991). Adenylate cyclase stimulation is measured as fold stimulation of control. Each bar is representative of five separate experiments.
(§1) Sprague-Dawley rats (20-22 day old) were obtained from Harlan Labs (Indianapolis, IN). […] Cell purity was monitored by phase contrast microscopy and by comparative reverse transcription-polymerase chain reaction (RT-PCR) amplification. […]

[2] = tested on: transferrin gene expression in Sertoli cells; experiment: Northern blot analysis of transferrin gene expression in cultured Sertoli cells; format: cell-based; conditions: GHRH-RP 10 nM and 100 nM, GHRH 10 nM, 16 hours, rat Sertoli cells
Method: (§2) As indicated above, it has been discovered that GHRH-RP has a unique testicular action. GHRH-RP specifically activated SVF in Sertoli cells as described in Example 3 below. […] Northern gel analysis of 10 μg of total Sertoli cell RNA was performed and the blot probed for SCF, transferrin, androgen binding protein (ABP), α-inhibin and γ-actin as control. B. Bloch, A. Baird, N. Ling, R. Guillemin, Endocrinology 118, 156 (1986). Stimulation of SCF expression is 12 fold over control at 10 nM and 16 fold at 100 nM concentrations of GHRH-RP. GHRH (10 nM) stimulated stem cell factor gene expression 3 fold over control. […] Other Sertoli cell specific transcripts including transferrin, ABP and α-inhibin were note regulated by GHRH-RP (FIG. 6). Although a functional GHRH receptor has been identified in Sertoli cells (R. S. Johnson, B. M. Spiegelman, V. Papaioannou, Cell 71, 577 (1992); K. M. Zsebo et al., Cell 63, 213 (1990); E. Huang et al., Cell 63, 225), the GHRH-RP stimulation of stem cell factor expression may not be mediated through this receptor. […] Adenylate cyclase stimulation is measured as fold stimulation of control. […]
as §1

[3] = tested on: androgen binding protein (ABP) gene expression in Sertoli cells; experiment: Northern blot analysis of androgen binding protein (ABP) gene expression in cultured Sertoli cells; format: cell-based; conditions: GHRH-RP 10 nM and 100 nM, GHRH 10 nM, 16 hours, rat Sertoli cells
Method: as §2, §1

[4] = tested on: α-inhibin gene expression in Sertoli cells; experiment: Northern blot analysis of α-inhibin gene expression in cultured Sertoli cells; format: cell-based; conditions: GHRH-RP 10 nM and 100 nM, GHRH 10 nM, 16 hours, rat Sertoli cells
Method: as §2, §1

[5] = tested on: adenylate cyclase in cultured Sertoli cells; experiment: cAMP production (125I cAMP radioimmunoassay) in cultured Sertoli cells; format: cell-based; conditions: 100 nM, 30 minutes at 37° C., rat Sertoli cells day 4 of culture
Method: As indicated above, it has been discovered that GHRH-RP has a unique testicular action. GHRH-RP specifically activated SVF in Sertoli cells as described in Example 3 below. […] Northern gel analysis of 10 μg of total Sertoli cell RNA was performed and the blot probed for SCF, transferrin, androgen binding protein (ABP), α-inhibin and γ-actin as control. B. Bloch, A. Baird, N. Ling, R. Guillemin, Endocrinology 118, 156 (1986). Stimulation of SCF expression is 12 fold over control at 10 nM and 16 fold at 100 nM concentrations of GHRH-RP. GHRH (10 nM) stimulated stem cell factor gene expression 3 fold over control. […] Other Sertoli cell specific transcripts including transferrin, ABP and α-inhibin were note regulated by GHRH-RP (FIG. 6). Although a functional GHRH receptor has been identified in Sertoli cells (R. S. Johnson, B. M. Spiegelman, V. Papaioannou, Cell 71, 577 (1992); K. M. Zsebo et al., Cell 63, 213 (1990); E. Huang et al., Cell 63, 225), the GHRH-RP stimulation of stem cell factor expression may not be mediated through this receptor. […] Briefly, shown in FIG. 6 are the results of experiments in which rat Sertoli cells, isolated and cultured for 4 days were incubated with GHRH-RP (100 nM), GHRH (100 nM), FSH (0.0275 U/ml) or control media for 30 minutes at 37° C. […] Adenylate cyclase stimulation is measured as fold stimulation of control. […]

[6] = tested on: stem cell factor (SCF) gene expression in Sertoli cells; conditions: treatment of cultured Sertoli cells; Srivastava et al., Endocrinology 133, 1478 (1993); cited from earlier work
[7] = tested on: Sertoli cell c-fos gene expression; conditions: treatment of cultured Sertoli cells; Srivastava et al., Endocrinology 133, 1478 (1993); cited from earlier work

Substance	Stimulation of SCF expression ([1]; 10 nM) [fold over control]	Stimulation of SCF expression ([1]; 100 nM) [fold]	stimulation of transferrin gene expression over control [2]	stimulation of ABP gene expression over control [3]	stimulation of α-inhibin gene expression over control [4]	Adenylate cyclase stimulation (cAMP production) [5]	Sertoli cell stem cell factor gene expression [6]	Sertoli cell c-fos gene expression [7]
GHRH-RP: 30 amino acid C-terminal peptide of the GHRH precursor; rat peptide synthesized from the deduced amino acid sequence (amino acids 74-104) (HLDRVWAEDKQMALESILQGFPRMKLSAEA)	12	16	no stimulation	no stimulation	no stimulation	does not stimulate increases		
GHRH: mature 43 amino acid rat GHRH peptide, hypothalamic factor that stimulates release of pituitary growth hormone (HADAIFTSSYRRILGQLYARKLLHEIMNRQQGERNQEQRSRFN)	3		no stimulation	no stimulation	no stimulation		activates	activates
